Experimental data reported in patent US20240091217A1, “STABLE PHARMACEUTICAL ORAL LIQUID FORMULATION OF AN ANTISPASMODIC AGENT” (priority 2022, published 2024).

Key:
[1] = Solubilizing Drotaverine HCl in dispersion media of sorbitol liquid, glycerin and water, storage; type: physicochemical; conditions: glycerin, water 1:1:1 to 3:2:1, no stabilizing agent
Text: The inventors of the present disclosure tried solubilizing Drotaverine HCl in a ratio of dispersion media containing sorbitol liquid, glycerin, and water ranging from 1:1:1 to 3:2:1, respectively. […] To obtain a physically and chemically stable product with good shelf life, the present inventors resolved this precipitation of Drotaverine in the proposed dispersion media. In order to avoid the precipitation of Drotaverine, the present inventors added a stabilizing agent to the dispersion media.

[2] = cited from earlier work
[3] = cited from earlier work; remark: listed apart in the source
[4] = Degradation of Drotaverine HCl under stress conditions; type: physicochemical; conditions: alkaline medium, higher oxidative stress conditions, presence of light
Text: In some embodiments, the disclosed formulations employ very few excipients, all of which are completely safe for pediatric patients, economical, and readily available.

CCOc1ccc(C=C2NCCc3cc(OCC)c(OCC)cc32)cc1OCC [Drotaverine, 1-[(3,4-diethoxyphenyl)methylene]-6,7-diethoxy-1,2,3,4-tetrahydroisoquinoline]
precipitation on storage [1]: re-precipitated on storage
oral LD50 [2]: > 1000 mg/Kg body weight
onset of action ([3]; after oral administration of 80 mg strength IR tablets): ≤ 12 min
renal clearance as share of the total plasma clearance ([3]; humans, Drotaverine IR tablets 80 mg): 0.31+/−0.13%
Absolute bioavailability (range) ([3]; humans, oral, subject dependent): 24.5-91%
Absolute bioavailability, mean (mean+/-SD) ([3]; humans, oral): 58.2+/−18.2%
degradation [4]: degrades extensively
